In the NIST ThermoML archive (doi:10.1016/j.fluid.2008.04.022):
± gives the expanded uncertainty stated by the source.

Experiment: xn = mol fraction of the nth substance listed
Conditions: Fluid (supercritical or subcritical phases), isochoric method

FC(C(F)(F)F)C(F)(F)F [1,1,1,2,3,3,3-heptafluoropropane] + CCF
Conditions | mass density [kg/m3]
318.18 K, 961.3 kPa, x2 = 0.8032 | 441.9 ± 2.2
323.18 K, 987.1 kPa, x2 = 0.8032 | 441.8 ± 2.2
323.19 K, 1112.7 kPa, x2 = 0.739 | 520.8 ± 2.4
328.18 K, 1011.6 kPa, x2 = 0.8032 | 441.8 ± 2.2
328.19 K, 1144.3 kPa, x2 = 0.739 | 520.7 ± 2.4
333.18 K, 1034.4 kPa, x2 = 0.8032 | 441.7 ± 2.2
333.18 K, 1439.9 kPa, x2 = 0.8036 | 671.6 ± 2.6
333.19 K, 1173.6 kPa, x2 = 0.739 | 520.7 ± 2.4
333.19 K, 1516.7 kPa, x2 = 0.811 | 717.6 ± 2.9
338.18 K, 1058.6 kPa, x2 = 0.8032 | 441.7 ± 2.1
338.18 K, 1369.5 kPa, x2 = 0.44 | 660.6 ± 3
338.18 K, 1481.2 kPa, x2 = 0.8036 | 671.6 ± 2.7
338.18 K, 1560.1 kPa, x2 = 0.811 | 717.5 ± 2.9
338.19 K, 1202.9 kPa, x2 = 0.739 | 520.7 ± 2.4
343.18 K, 1231.3 kPa, x2 = 0.739 | 520.6 ± 2.4
343.18 K, 1519.5 kPa, x2 = 0.8036 | 671.5 ± 2.6
343.18 K, 1601.7 kPa, x2 = 0.811 | 717.5 ± 2.8
343.19 K, 1081.5 kPa, x2 = 0.8032 | 441.7 ± 2.1
343.19 K, 1413.6 kPa, x2 = 0.44 | 660.5 ± 3
343.19 K, 1712.3 kPa, x2 = 0.627 | 835.4 ± 3.2
348.15 K, 2241.8 kPa, x2 = 0.8392 | 1112.1 ± 3.9
348.18 K, 1104.1 kPa, x2 = 0.8032 | 441.6 ± 2
348.18 K, 1260.2 kPa, x2 = 0.739 | 520.6 ± 2.4
348.18 K, 1453.8 kPa, x2 = 0.44 | 660.5 ± 3
348.18 K, 1557.8 kPa, x2 = 0.8036 | 671.4 ± 2.6
348.19 K, 1766.5 kPa, x2 = 0.627 | 835.3 ± 3.1
348.2 K, 1643.2 kPa, x2 = 0.811 | 717.4 ± 2.8
353.15 K, 2312 kPa, x2 = 0.8392 | 1112 ± 3.9
353.18 K, 1127 kPa, x2 = 0.8032 | 441.6 ± 2
353.18 K, 1287.6 kPa, x2 = 0.739 | 520.5 ± 2.3
353.19 K, 1493.5 kPa, x2 = 0.44 | 660.4 ± 3
353.19 K, 1594.5 kPa, x2 = 0.8036 | 671.4 ± 2.6
353.19 K, 1683.4 kPa, x2 = 0.811 | 717.3 ± 2.7
353.19 K, 1818 kPa, x2 = 0.627 | 835.2 ± 3.1
358.17 K, 1314.9 kPa, x2 = 0.739 | 520.5 ± 2.3
358.17 K, 1532 kPa, x2 = 0.44 | 660.3 ± 3
358.18 K, 1148.5 kPa, x2 = 0.8032 | 441.6 ± 2
358.18 K, 1631.3 kPa, x2 = 0.8036 | 671.3 ± 2.5
358.19 K, 1722.8 kPa, x2 = 0.811 | 717.3 ± 2.7
358.19 K, 1868.1 kPa, x2 = 0.627 | 835.2 ± 3
358.23 K, 2381.4 kPa, x2 = 0.8392 | 1111.9 ± 3.8
363.14 K, 2448.2 kPa, x2 = 0.8392 | 1111.8 ± 3.8
363.19 K, 1171.1 kPa, x2 = 0.8032 | 441.5 ± 1.9
363.19 K, 1569.8 kPa, x2 = 0.44 | 660.3 ± 3
363.19 K, 1761.7 kPa, x2 = 0.811 | 717.2 ± 2.7
363.19 K, 1917 kPa, x2 = 0.627 | 835.1 ± 3
363.2 K, 2459.6 kPa, x2 = 0.4954 | 1290.6 ± 4.5
363.21 K, 1667 kPa, x2 = 0.8036 | 671.3 ± 2.5
363.31 K, 1342.8 kPa, x2 = 0.739 | 520.4 ± 2.2
368.14 K, 1369.4 kPa, x2 = 0.739 | 520.4 ± 2.2
368.14 K, 1800.8 kPa, x2 = 0.811 | 717.2 ± 2.6
368.16 K, 1608 kPa, x2 = 0.44 | 660.2 ± 2.9
368.16 K, 1966 kPa, x2 = 0.627 | 835 ± 3
368.17 K, 1703 kPa, x2 = 0.8036 | 671.2 ± 2.5
368.18 K, 2515 kPa, x2 = 0.8392 | 1111.7 ± 3.8
368.18 K, 2548.7 kPa, x2 = 0.4954 | 1290.5 ± 4.4
368.29 K, 1193.9 kPa, x2 = 0.8032 | 441.5 ± 1.9
373.04 K, 1215 kPa, x2 = 0.8032 | 441.5 ± 1.9
373.15 K, 1644.9 kPa, x2 = 0.44 | 660.2 ± 2.8
373.16 K, 1839.4 kPa, x2 = 0.811 | 717.1 ± 2.6
373.18 K, 1396.2 kPa, x2 = 0.739 | 520.4 ± 2.2
373.18 K, 1738.7 kPa, x2 = 0.8036 | 671.2 ± 2.5
373.18 K, 2580 kPa, x2 = 0.8392 | 1111.6 ± 3.8
373.18 K, 2636.7 kPa, x2 = 0.4954 | 1290.4 ± 4.4
373.19 K, 2014.5 kPa, x2 = 0.627 | 835 ± 2.9
376.18 K, 2687.7 kPa, x2 = 0.4954 | 1290.3 ± 4.3
378.17 K, 2644.8 kPa, x2 = 0.8392 | 1111.5 ± 3.8
378.23 K, 1774.6 kPa, x2 = 0.8036 | 671.1 ± 2.4
378.23 K, 2063.3 kPa, x2 = 0.627 | 834.9 ± 2.9
378.25 K, 1422.5 kPa, x2 = 0.739 | 520.3 ± 2.1
378.25 K, 1681.3 kPa, x2 = 0.44 | 660.1 ± 2.8
378.25 K, 1876.9 kPa, x2 = 0.811 | 717 ± 2.6
378.29 K, 1236.9 kPa, x2 = 0.8032 | 441.4 ± 1.8
379.23 K, 2739.1 kPa, x2 = 0.4954 | 1290.3 ± 4.3
382.19 K, 2788.4 kPa, x2 = 0.4954 | 1290.2 ± 4.3
383.08 K, 1448.6 kPa, x2 = 0.739 | 520.3 ± 2.1
383.17 K, 2708.3 kPa, x2 = 0.8392 | 1111.4 ± 3.7
383.2 K, 2110.6 kPa, x2 = 0.627 | 834.8 ± 2.9
383.21 K, 1718.2 kPa, x2 = 0.44 | 660.1 ± 2.7
383.21 K, 1809.6 kPa, x2 = 0.8036 | 671.1 ± 2.4
383.21 K, 1915.8 kPa, x2 = 0.811 | 717 ± 2.6
383.22 K, 1259.2 kPa, x2 = 0.8032 | 441.4 ± 1.8
385.22 K, 2838.9 kPa, x2 = 0.4954 | 1290.1 ± 4.3
388.17 K, 2771 kPa, x2 = 0.8392 | 1111.3 ± 3.7
388.18 K, 1279.7 kPa, x2 = 0.8032 | 441.3 ± 1.8
388.18 K, 2156.7 kPa, x2 = 0.627 | 834.8 ± 2.9
388.19 K, 1754.7 kPa, x2 = 0.44 | 660 ± 2.7
388.19 K, 1844.5 kPa, x2 = 0.8036 | 671 ± 2.4
388.19 K, 1953.2 kPa, x2 = 0.811 | 716.9 ± 2.5
388.19 K, 2887.9 kPa, x2 = 0.4954 | 1290.1 ± 4.3
388.32 K, 1475.8 kPa, x2 = 0.739 | 520.2 ± 2.1
391.22 K, 2937.4 kPa, x2 = 0.4954 | 1290 ± 4.2
393.18 K, 1501.3 kPa, x2 = 0.739 | 520.2 ± 2
393.18 K, 1790.2 kPa, x2 = 0.44 | 660 ± 2.6
393.18 K, 1879 kPa, x2 = 0.8036 | 670.9 ± 2.4
393.18 K, 1990.4 kPa, x2 = 0.811 | 716.9 ± 2.5
393.18 K, 2203.2 kPa, x2 = 0.627 | 834.7 ± 2.8
393.21 K, 1301.7 kPa, x2 = 0.8032 | 441.3 ± 1.8
393.22 K, 2834 kPa, x2 = 0.8392 | 1111.2 ± 3.7
394.18 K, 2985.9 kPa, x2 = 0.4954 | 1289.9 ± 4.2
397.15 K, 3033.4 kPa, x2 = 0.4954 | 1289.9 ± 4.2
398.16 K, 1322.9 kPa, x2 = 0.8032 | 441.3 ± 1.8
398.16 K, 1912.8 kPa, x2 = 0.8036 | 670.9 ± 2.4
398.16 K, 2248.3 kPa, x2 = 0.627 | 834.6 ± 2.8
398.17 K, 1527.2 kPa, x2 = 0.739 | 520.1 ± 2
398.17 K, 1825.4 kPa, x2 = 0.44 | 659.9 ± 2.6
398.17 K, 2027.2 kPa, x2 = 0.811 | 716.8 ± 2.5
398.21 K, 2896 kPa, x2 = 0.8392 | 1111.2 ± 3.7
400.15 K, 3082 kPa, x2 = 0.4954 | 1289.8 ± 4.2
403.14 K, 1344.2 kPa, x2 = 0.8032 | 441.2 ± 1.8
403.15 K, 1946.2 kPa, x2 = 0.8036 | 670.8 ± 2.3
403.16 K, 1553.2 kPa, x2 = 0.739 | 520.1 ± 1.9
403.16 K, 1860.1 kPa, x2 = 0.44 | 659.8 ± 2.5
403.17 K, 2293.4 kPa, x2 = 0.627 | 834.5 ± 2.8
403.19 K, 2956.6 kPa, x2 = 0.8392 | 1111.1 ± 3.6
403.19 K, 3129.8 kPa, x2 = 0.4954 | 1289.8 ± 4.2
403.2 K, 2063.9 kPa, x2 = 0.811 | 716.8 ± 2.5
